According to patent US10683486B2, “Methods for producing hepatocytes” (BioLamina AB, priority 2015, dated 2020):
Where two headings read alike, the source gives them in different places.

Tested on: stem cell derived hepatocytes
Experiment: Hepatocyte function with Cameron and Avior procedures on laminin-221/laminin-521 substrates (Example 3)
Format: cell-based, human
Excerpt: Stem-cell derived hepatocytes were produced from human embryonic stem cells on three different substrates. The first substrate was pure laminin-521 (LN-521). The second substrate was a mix of laminin-521 and laminin-221 in a weight ratio of 1:3 (221 (1:3)). The third substrate was a mix of laminin-221 and laminin-521 in a weight ratio of 1:1 (221 (1:1)). The Cameron procedure and the Avior procedure were compared to each other.
FIG. 13 is a set of two bar graphs showing hepatocyte function of the two procedures. […] Such benefits were not observed using both MK4 and LCA.

Row | Compound | toxic effects on stem cell derived hepatocytes | toxic effects on stem cell derived hepatocytes (Avior procedure, LCA and MK4 together, cell death at day 18)
1 | CC(C)=CCC/C(C)=C/CC/C(C)=C/CC/C(C)=C/CC1=C(C)C(=O)c2ccccc2C1=O [MK4, vitamin K (MK4)] | major toxic effects | 
2 | C[C@H](CCC(=O)O)[C@H]1CC[C@H]2[C@@H]3CC[C@@H]4C[C@H](O)CC[C@]4(C)[C@H]3CC[C@]12C [LCA, lithocholic acid] |  | major toxic effects
